The text below walks through data of paper PMC6263338, “Synthesis of Some Phenylpropanoid Glycosides (PPGs) and Their Acetylcholinesterase/Xanthine Oxidase Inhibitory Activities” (Molecules, 2011).

SMILES strings stand for the structures.

Assay [1] concerns the target T1, AChE (from drosophila) (Drosophila melanogaster, UniProt P07140).
T1 construct: purchased Jing Peng Bio-Pesticide Co., Ltd. Shandong, P. R. China
Nature of the assay: In vitro AChE inhibitory activity (Acetylcholinesterase Detection Kit). It is filed as biochemical. Particulars: for inhibition at 1500 µg/mL: 1.5 mg/mL, compounds in 1% DMSO, mean ± SD, triplicate, read-out: AChE inhibitory activitiy % inhibition (1.5 mg/mL); for IC50: seven concentrations, mean ± SD of triplicate independent experiments, – = not active, read-out: AChE inhibitory activitiy IC50. As for the experimental part:
(§1) In vitro inhibitory activity test of these glycosides against AChE and XOD was studied by using Acetylcholinesterase Detection Kit and Xanthine Oxidase Detection Kit.
Assay of the in vitro AChE/XOD inhibitory activity: The tests of in vitro inhibitory activity of these PPGs against AChE (from drosophila, Jing Peng Bio-Pesticide Co., Ltd. Shandong, P. R. China) and Xanthine Oxidase (from buttermilk, Sigma Co., Ltd. X4875) were carried out by using AChE (or XOD) Detection Kits (Jian Cheng Bioengineering Institute, Nan Jin, Jiangsu, P. R. China), following the manufacturer’s protocol. All the compounds were dissolved in 1% DMSO. […] The results were read on a microplate reader at the wavelength of 450 nm/530 nm. All the assays were performed in triplicate with three independent experiments. The IC50 values were calculated using XLfit software.

The target in assay [2] is T2, Xanthine Oxidase (from buttermilk) (Bos taurus, UniProt P80457).
T2 construct: Xanthine Oxidase (from buttermilk, Sigma Co., Ltd. X4875); purchased Sigma Co., Ltd. X4875; host or cells: buttermilk
Put plainly: In vitro XOD inhibitory activity (Xanthine Oxidase Detection Kit). Format: biochemical. Particulars: for inhibition at 1500 µg/mL: read-out: XOD inhibitory activity % inhibition (1.5 mg/mL); for IC50: read-out: XOD inhibitory activity IC50, seven concentrations, mean ± SD of triplicate independent experiments, – = not active. The protocol:
as §1
Assay of the in vitro AChE/XOD inhibitory activity: The tests of in vitro inhibitory activity of these PPGs against AChE (from drosophila, Jing Peng Bio-Pesticide Co., Ltd. Shandong, P. R. China) and Xanthine Oxidase (from buttermilk, Sigma Co., Ltd. X4875) were carried out by using AChE (or XOD) Detection Kits (Jian Cheng Bioengineering Institute, Nan Jin, Jiangsu, P. R. China), following the manufacturer’s protocol. All the compounds were dissolved in 1% DMSO. […] If an inhibition of more than 30% was observed, the compound was classified as active. The active compounds were consequently tested at seven concentrations. The results were read on a microplate reader at the wavelength of 450 nm/530 nm. All the assays were performed in triplicate with three independent experiments. The IC50 values were calculated using XLfit software.

As for `COc1ccc(C=CCO[C@@H]2O[C@H](CO[C@@H]3OC[C@H](O)[C@H](O)[C@H]3O)[C@@H](O)[C@H](O)[C@H]2O)cc1` [Compound 22, 4-Methoxycinnamyl 6-O-(α-L-arabinopyranosyl)-β-D-glucopyranoside], in assay [1], the inhibition at 1500 µg/mL was determined as 72 ± 0.1% and the concentration for half-maximal inhibition (IC50) came to 4.23 ± 0.1 µM. Besides, in assay [2], the inhibition at 1500 µg/mL came to 65 ± 0.1% and the IC50 stood at 5.71 ± 0.1 µM.

Turning to `C[C@@H]1O[C@@H](OC[C@H]2O[C@@H](OCC=Cc3ccccc3)[C@H](O)[C@@H](O)[C@@H]2O)[C@H](O)[C@H](O)[C@H]1O` [Compound 23, Cinnamyl 6-O-(α-L-rhamnopyranosyl)-β-D-glucopyranoside], in assay [1], the inhibition at 1500 µg/mL came to 81 ± 0.05% and the IC50 was 2.05 µM. Besides, in assay [2], the inhibition at 1500 µg/mL was determined as 60 ± 0.01% and the IC50 is 8.21 µM.

The IC50 is the concentration that gives 50% inhibition.
